According to patent US12215123B2, “Cordycepin-based derivatized compound with anti-tumor effect” (NANJING TECH UNIVERSITY, priority 2022, dated 2025):
Where two headings read alike, the source gives them in different places.

Legend:
[1] = tested on: small cell lung cancer cell line H69; experiment: MTT proliferation, small cell lung cancer cell line H69; assay type: cell-based; conditions: read-out: IC50 (μM) of compounds in small cell lung cancer cells, H69
In short: (§1)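 MTT assay: cells seeded at 2 to 4×10^4 cells/mL, grown 24 h, then exposed to compound for 72 h. MTT added for 4 h, formazan dissolved in DMSO and absorbance read at 570 nm; IC50 taken from the S-shaped concentration-inhibition curve.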

[2] = tested on: Hep-1-6 liver cancer cells; experiment: Mouse transplanted liver cancer model; assay type: in vivo, C57BL/6j nude mice; conditions: Hep-1-6 transplanted mice, intragastric 500 ug/time/animal every other day, 14 days; blank 900 mm^3
Description: (§2) The feeding of the mouse model in the drug evaluation follows that: mice are fed and treated in a laminar flow cabinet, with 5 nude mice in each cage, drinking water and feedstuffs are added once every 3 days, and paddings are replaced once a week; a number of mice kept in each cage is no more than 5, the mice in separate cages are kept in groups as far as possible, and the mice should not be kept in a single cage; the animal management must conform to the relevant national standards on animal feeding management, and the behavioral needs of animals should be concerned at the same time to avoid unnecessary stress; the normal physiological and behavioral needs of animals, such as defecation, urination, constant body temperature maintenance, normal activities, posture adjustment and reproduction are met; good ventilation and dry animals are kept; the animals can access to drinking water and food at will, and supplementation, replacement and cleaning operations are easily carried out; a solid and safe environment is provided to avoid accidents of animals, such as escaping or limb trapping in a gap; the animals are avoided from being damaged by sharp edges or protrusions; and the animals are not disturbed during observation.
A mouse transplanted liver cancer model was established and a drug was evaluated. […]

[3] = tested on: BGC-823 gastric cancer cells; experiment: Mouse transplanted gastric cancer model; assay type: in vivo, C57BL/6j nude mice; conditions: BGC-823 transplanted mice, intragastric 500 ug/time/animal every day, 18 days; for tumor weight: control 1.73 g
Description: as §2
A mouse transplanted gastric cancer model was established and a drug was evaluated. 2×10^7 BGC-823 gastric cancer cells were suspended in 100 μL of PBS to be inoculated into an anterior chest wall of C57BL/6j nude mice, disinfection was carried out with 75% ethanol, and the most obvious part of apical impulse was touched with hand to inoculate the cells to a left ventricle in a second intercostal space about 3 mm to the left of the sternum. About one week later, when the transplanted tumor reached about 100 mm^3, the mice were randomly divided into five groups, with 10 mice in each group, comprising a control group, a cordycepin group, and compound 16, compound 18 and compound 24 drug groups respectively. The control group was intragastrically administrated with a nutritional agent such as a corn steep liquor and DMSO as a solvent control every day; the cordycepin group was intragastrically administrated with the cordycepin (500 ug/time/animal) every day under configuration with DMSO; and the compound drug groups were intragastrically administrated with the compounds (500 ug/time/animal) every day under configuration with DMSO. The administration was carried out for 18 consecutive days. Changes of gastric tumor sizes in the five groups of mice were observed every two days, the mice were killed after the experiment, blood and corresponding tissue samples were collected, and tumor bodies were immediately photographed and weighed.

[4] = tested on: small cell lung cancer cell line H446; experiment: MTT proliferation, small cell lung cancer cell line H446; assay type: cell-based; conditions: read-out: IC50 (μM) of compounds in small cell lung cancer cells, H446
In short: as §1

B16-F10 melanoma cells = experiment: Mouse transplanted melanoma model; assay type: in vivo, C57BL/6j nude mice; conditions: B16-F10 transplanted mice, intragastric 500 ug/time/animal every other day, 24 days; blank 1760 mm^3
Description: as §2
A mouse transplanted melanoma model was established and a drug was evaluated. 2.5×10^5 B16-F10 melanoma cells were suspended in 100 μL of PBS to be inoculated into an outer side of thigh of left lower limb of C57BL/6j nude mice. One week later, when the transplanted tumor reached about 100 mm^3, the mice were randomly divided into ten groups, with 10 mice in each group, comprising a blank control group, a cordycepin group, a compound 13 group, a compound 14 group, a compound 17 group, a compound 19 group, a compound 22 group, a compound 26 group, a compound 29 group and a compound 34 group respectively. The blank control group was intragastrically administrated with a nutritional agent such as a corn steep liquor and DMSO as a solvent control every day for 24 consecutive days, and the compound groups were intragastrically administrated with corresponding compounds (500 ug/time/animal in all cases) every other day for 24 consecutive days. […] The mice were killed after the experiment, blood and corresponding tissue samples were collected, tumor bodies were immediately photographed and weighed, and some tumor tissues were fixed in a formalin solution to be further detected. Two vertical diameters (length and width) of the transplanted tumor were measured with a caliper every two days to calculate a size of the transplanted tumor, and a tumor value was calculated according to a formula: tumor volume (mm^3)=[…].

| Structure (SMILES) | IC50 ([1]; 72 h) | tumor volume [2] | tumor weight, times lower than that of the control group [3] | tumor weight [3] | IC50 ([4]; Homo sapiens, NCI-H446, 72 h) | IC50 ([1]; MTT, 72 hours, H69) | IC50 ([4]; Homo sapiens, NCI-H446, 72 h, MTT, 72 hours, H446) | IC50 ([4]; MTT, 72 hours, H446) | tumor volume (B16-F10 melanoma cells) |
| --- | --- | --- | --- | --- | --- | --- | --- | --- | --- |
| CC(C)OC(=O)C(C)NP(=O)(COC[C@@H]1CC(O)[C@H](n2cnc3c(NC(=O)c4ccncc4)ncnc32)O1)Oc1ccccc1 (some centres unmarked) [Compound 24, isopropyl((((4-hydroxy-5-(6-(isonicotinamide)-9H-purin-9-yl)tetrahydrofuran-2-yl)methoxy)methyl)(phenoxy)phosphoryl)alanine ester] | 25.5 µM | < 100 mm^3 | about 12 times | 0.14 g | 17.2 µM | – | – | – | – |
| Nc1ncnc2c1ncn2[C@@H]1O[C@H](CO)C[C@H]1O [Cordycepin, 3′-deoxyadenosine] | – | – | about 4 times | 0.46 g | – | 63.1 µM | > 100 µM | 123 µM | 600 mm^3 |
